Experimental data: US10538535B2, “Antitumoral compounds” (priority 2017, dated 2020)
Where two headings read alike, the source gives them in different places.

Tests used:
A549 cells = test: cells; conditions: Homo sapiens, A549, 72 h
In short: (§1)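 Cells seeded at 5000/well, attached 18 h, then treated 72 h with ten 2/5 serial dilutions (10 to 0.003 μg/mL, 1% final DMSO) in triplicate. Growth measured by SRB staining after glutaraldehyde fixation, with time-zero plate; values from NCI algorithm and four-parameter logistic fit.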

HT29 cells = test: cells; conditions: Homo sapiens, HT-29, 72 h
In short: as §1

MDA-MB-231 cells = test: cells; conditions: Homo sapiens, MDA-MB-231, 72 h
In short: as §1

PSN1 cells = test: cells; conditions: Homo sapiens, PSN1, 72 h
In short: as §1

[1] = MTMD (Maximum Tolerated Multiple Dose) determination, iv weekly x3; type: in vivo; conditions: mice; iv/Q7dx3
Source text: Female CD-1 or Athymic Nude-Fox1 nu/nu mice (Envigo) were utilized for all experiments. […] Animals were acclimated for five days prior to being individually tattoo-identified. Animal protocols were reviewed and approved according to the regional Institutional Animal Care and Use Committees.
Mice were randomly allocated into experimental groups and intravenously administered, once for the MTD (Maximum Tolerated Dose) determination or one administration a week during three consecutive weeks, for the MTMD (Maximum Tolerated Multiple Dose) determination study. The animals were administered with white formulation or with compound dissolved in the experimental formulation at different concentrations. The volume administered was always 10 mL/kg. Once administered, animals were monitored for clinical signs of systemic toxicity, changes in body weight and mortality up to 14 days after the administration.

H460 tumors = conditions: iv, 3 mg/kg
Experimental: (§2) Female athymic nu/nu mice (Harlan Laboratories Models, S. L. Barcelona, Spain or Envigo, Spain) were utilized for all experiments. Animal were housed in individually ventilated cages Sealsafe® Plus, Techniplast S.P.A.), up to ten per cage on a 12-hour light-dark cycle at 21-23° C. and 40-60% humidity. […] Animals were acclimated for at least 5 days prior to tumor implantation with a tumor cell suspension.
H460 cells were maintained in vitro at 37° C. with 5% CO2 in Dulbecco's Modified Eagle's Medium (Sigma-Aldrich, Co). Culture cells were passaged every 3 to 5 days upon reaching confluence. Each animal was subcutaneously implanted (on the right flank using 26 G needle and a 1 cc syringe) at 4-6 weeks of age with 5×10^6 H460 cells suspended in 0.05 mL of a solution consisting of 50% Matrigel® (Corning Incorporated Life Sciences) and 50% medium without serum or antibiotics.
(§3) Treatment tolerability was assessed by monitoring body weight evolution, clinical signs of systemic toxicity, as well as evidences of local damage in the injection site.
(§4) Treatments producing >20% lethality and/or 20% net body weight loss were considered toxic.

A2780 tumors = conditions: iv, 3 mg/kg
Experimental: as §2
Culture cells were passaged every 3 to 5 days upon reaching confluence. Each animal was subcutaneously implanted (on the right flank using 26 G needle and a 1 cc syringe) at 4-6 weeks of age with 10×10^6 A2780 cells suspended in 0.05 mL of a solution consisting of 50% Matrigel® (Corning Incorporated Life Sciences) and 50% medium without serum or antibiotics.
as §3
In xenograft studies with other cell lines: • Tumor volume was calculated using the equation (a·b^2)/2, where a: length (longest diameter) and b: width (shortest diameter) were measured in mm by using digital caliper (Fowler Sylvac, S235PAT).
as §4

HGC27 tumors = conditions: iv, 3 mg/kg
Experimental: as §2
HGC27 cells were maintained in vitro at 37° C. with 5% CO2 in Iscove's Modified Dulbecco's Medium (Sigma Aldrich, Co). Culture cells were passage every 3 to 5 days on reaching confluence. Each animal was subcutaneously implanted (on the right flank using 26 G needle and a 1 cc syringe) at 4-6 weeks of age with 5×10^6 HGC-27 cells suspended in 0.05 mL of a solution consisting of 50% Matrigel® (Corning Incorporated Life Sciences), 50% medium without serum or antibiotics.
as §3, §4

H526 tumors = test: In vivo xenograft, human lung (SCLC) H526; conditions: iv weekly, 39-S […], C 3 mg/Kg
Experimental: Female athymic nu/nu mice (Harlan Laboratories Models, S. L. Barcelona, Spain or Envigo, Spain) were utilized for all experiments. Animal were housed in individually ventilated cages Sealsafe® Plus, Techniplast S.P.A.), up to ten per cage on a 12-hour light-dark cycle at 21-23° C. and 40-60% humidity. Mice were allowed free access to irradiated standard rodent diet (Tecklad 2914C) and sterilized water. Animals were acclimated for at least 5 days prior to tumor implantation with a tumor cell suspension.
H526 cells were grown as a suspension and maintained by addition of fresh medium, as the cell density increases, every 2 to 3 days. Every week, culture was reestablished by centrifugation of the suspension with subsequent resuspension in fresh medium at a concentration of 1×10^5 cell/mL. Each animal was subcutaneously implanted (on the right flank using 26 G needle and a 1 cc syringe) at 4-6 weeks of age with 5×10^6 H526 cells suspended in 0.05 mL of a solution consisting of 50% Matrigel® (Corning Incorporated Life Sciences) and 50% medium without serum or antibiotics.
as §3, §4

In the case of `COc1c(C)cc2c(c1O)[C@@H]1[C@@H]3[C@@H]4SC[C@]5(N[C@H](C)Cc6c5[nH]c5ccccc65)C(=O)OC[C@@H](c5c6c(c(C)c(OC(C)=O)c54)OCO6)N3[C@@H](O)[C@H](C2)N1C` [C], the GI50 (A549 cells) is reported as 27.3 nM, the CC50 (A549 cells; read-out: LC50) is reported as > 130 nM and the IC (TGI) (A549 cells; read-out: TGI) is reported as 0.0663 µM. For the same molecule, the GI50 (HT29 cells) was 20.8 nM, the CC50 (HT29 cells; read-out: LC50) was > 130 nM and the IC (TGI) (HT29 cells; read-out: TGI) was 0.0234 µM. For the same molecule, the GI50 (MDA-MB-231 cells) was 26 nM, the CC50 (MDA-MB-231 cells; read-out: LC50) was > 130 nM and the IC (TGI) (MDA-MB-231 cells; read-out: TGI) was 0.0546 µM. The GI50 (PSN1 cells) was 36.4 nM, the CC50 (PSN1 cells; read-out: LC50) was 65 nM and the IC (TGI) (PSN1 cells; read-out: TGI) was 0.0442 µM. The MTMD [1] was 3.0 mg/kg, the “Median Tumor Volume” value (H460 tumors; 0 h) was 186.1 mm^3 and the “Median Tumor Volume” value (H460 tumors; 48 h) was 395.4 mm^3. For the same molecule, the “Median Tumor Volume” value (H460 tumors; 120 h) was 665.9 mm^3, the “Median Tumor Volume” value (H460 tumors; 168 h) was 929.5 mm^3 and the “Median Tumor Volume” value (H460 tumors; 336 h) was 2025.0 mm^3. For the same molecule, the “Median Tumor Volume” value (H460 tumors; 384 h) was 2025.0 mm^3, the “Median Tumor Volume” value (A2780 tumors; 0 h) was 169.6 mm^3 and the “Median Tumor Volume” value (A2780 tumors; 48 h) was 206.3 mm^3. For the same molecule, the “Median Tumor Volume” value (A2780 tumors; 120 h) was 372.7 mm^3, the “Median Tumor Volume” value (A2780 tumors; 168 h) was 607.6 mm^3 and the “Median Tumor Volume” value (A2780 tumors; 336 h) was 1293.9 mm^3. For the same molecule, the “Median Tumor Volume” value (A2780 tumors; 384 h) was 1683.5 mm^3, the “Median Tumor Volume” value (A2780 tumors; 456 h) was 2137.5 mm^3 and the “Median Tumor Volume” value (HGC27 tumors; 0 h) was 195.0 mm^3. The “Median Tumor Volume” value (HGC27 tumors; 48 h) was 391.0 mm^3, the “Median Tumor Volume” value (HGC27 tumors; 120 h) was 578.6 mm^3 and the “Median Tumor Volume” value (HGC27 tumors; 168 h) was 708.2 mm^3. The “Median Tumor Volume” value (HGC27 tumors; 336 h) was 1496.8 mm^3, the “Median Tumor Volume” value (HGC27 tumors; 384 h) was 1690.6 mm^3 and the “Median Tumor Volume” value (HGC27 tumors; 456 h) was 2004.0 mm^3. The “Median Tumor Volume” value (HGC27 tumors; 504 h) was 1741.4 mm^3, the “Median Tumor Volume” value (HGC27 tumors; 552 h) was 2056.4 mm^3 and the “Median Tumor Volume” value (H526 tumors; Table 49, Day 0) was 217.9 mm^3. For the same molecule, the “Median Tumor Volume” value (H526 tumors; Table 49, Day 2) was 262.4 mm^3, the “Median Tumor Volume” value (H526 tumors; Table 49, Day 4) was 108.3 mm^3 and the “Median Tumor Volume” value (H526 tumors; Table 49, Day 7) was 129.8 mm^3. For the same molecule, the “Median Tumor Volume” value (H526 tumors; Table 49, Day 9) was 85.9 mm^3, the “Median Tumor Volume” value (H526 tumors; Table 49, Day 11) was 52.3 mm^3 and the “Median Tumor Volume” value (H526 tumors; Table 49, Day 14) was 54.1 mm^3. The “Median Tumor Volume” value (H526 tumors; Table 49, Day 16) was 47.3 mm^3, the “Median Tumor Volume” value (H526 tumors; Table 49, Day 21) was 4.0 mm^3 and the “Median Tumor Volume” value (H526 tumors; Table 49, Day 28) was 4.0 mm^3. The “Median Tumor Volume” value (H526 tumors; Table 49, Day 35) was 4.0 mm^3, the “Median Tumor Volume” value (H526 tumors; Table 49, Day 42) was 62.5 mm^3 and the “Median Tumor Volume” value (H526 tumors; Table 49, Day 49) was 53.5 mm^3. The “Median Tumor Volume” value (H526 tumors; Table 49, Day 56) was 70.0 mm^3, the “Median Tumor Volume” value (H526 tumors; Table 49, Day 63) was 132.3 mm^3 and the “Median Tumor Volume” value (H526 tumors; Table 49, Day 70) was 368.5 mm^3. For the same molecule, the “Median Tumor Volume” value (H526 tumors; Table 49, Day 77) was 465.8 mm^3, the “Median Tumor Volume” value (H526 tumors; Table 49, Day 84) was 107.4 mm^3 and the “Median Tumor Volume” value (H526 tumors; Table 49, Day 91) was 130.0 mm^3. For the same molecule, the “Median Tumor Volume” value (H526 tumors; Table 49, Day 98) was 4.0 mm^3, the “Median Tumor Volume” value (H526 tumors; Table 49, Day 105) was 4.0 mm^3 and the “Median Tumor Volume” value (H526 tumors; Table 49, Day 112) was 4.0 mm^3. The “Median Tumor Volume” value (H526 tumors; Table 49, Day 119) was 4.0 mm^3, the “Median Tumor Volume” value (H526 tumors; Table 49, Day 126) was 4.0 mm^3 and the “Median Tumor Volume” value (H526 tumors; Table 49, Day 133) was 4.0 mm^3. The “Median Tumor Volume” value (H526 tumors; Table 49, Day 140) was 4.0 mm^3, the “Median Tumor Volume” value (H526 tumors; Table 49, Day 147) was 4.0 mm^3 and the “Median Tumor Volume” value (H526 tumors; Table 49, Day 165) was 4.0 mm^3. For the same molecule, the “Median Tumor Volume” value (H526 tumors; Table 49, Day 175) was 4.0 mm^3, the “Median Tumor Volume” value (H526 tumors; Table 49, Day 191) was 4.0 mm^3 and the “Median Tumor Volume” value (H526 tumors; Table 49, Day 205) was 4.0 mm^3.
